Data as given in patent US6696559B1, “Antimicrobial peptides and methods of use” (The Regents of the University of California, priority 1996, dated 2004).
“Also recorded” adds a separate entry of the source. Where no end group is shown, it is not given here.

Key:
[1] = tested on: C. albicans; assay: microbicidal suspension assay; type: cell-based
Experimental: (§1) Antimicrobial assay. E. coli ML35, S. aureus 502A, C. albicans, and C. neoformans were used as target organisms in a microbicidal suspension assay as previously described (Selsted, M. E., Genetic Engineering: Principles and Methods, J. K. Setlow, Plenum Press, New York, 1993, pp. 131-147).
(§2) Natural and synthetic BGP-A and synthetic BGP-A-amide were tested for their microbicidal activities against S. aureus 502A, E. coli ML35, C. albicans, and C. neoformans. Using a microbicidal suspension assay (Selsted, M. E., Genetic Engineering: Principles and Methods, J. K. Setlow, Plenum Press, New York, 1993, pp.131-147), each peptide was tested against the four test organisms with peptide concentrations ranging from 5-100 μg/ml. The bactericidal and fungicidal activities of the three peptide preparations were assessed using a standard microbicidal assay. Organisms were grown to mid-log phase, harvested, and suspended to 2×10^7 CFU/ml. The incubation mixture contained 1-2×10^6 CFU/ml, 10 mM sodium phosphate buffer, pH 7.4, and peptide at concentrations up to 100 μg/ml. After 1 h of incubation at 37° C. (4 h incubations for C. neoformans), serial 10-fold dilutions were plated on Trypticase Soy Agar (bacteria) or S. abaraud dextrose agar (fungi), and incubated for 24-48 h at 37° C. Killing was quantitated by colony counting, and plotted as a function of peptide concentration in the incubation.

[2] = tested on: C. neoformans; assay: microbicidal suspension assay; type: cell-based
Experimental: as §1, §2

[3] = tested on: E. coli ML35; assay: microbicidal suspension assay; type: cell-based
Experimental: as §1, §2

[4] = tested on: S. aureus 502A; assay: microbicidal suspension assay; type: cell-based
Experimental: as §1, §2

[5] = tested on: E. coli; settings: Selsted et al., J. Biol. Chem. 267:4292-4295, 1992; cited from earlier work
[6] = tested on: S. aureus; settings: Selsted et al., J. Biol. Chem. 267:4292-4295, 1992; cited from earlier work
[7] = 1 h incubation, synthetic versus natural peptide, listed as synthetic BGP-A
[8] = peptide 5-100 μg/ml, 10 mM sodium phosphate buffer, pH 7.4, 1 h at 37° C., FIG. 7

Substance	microbicidal potency compared with natural BGP-A [1, 7]	microbicidal activity (reduction in colony forming units) [1, 8]	microbicidal potency compared with natural BGP-A ([2]; 4 h incubation, synthetic versus natural peptide, listed as synthetic BGP-A)	microbicidal activity (reduction in colony forming units) ([2]; peptide 5-100 μg/ml, 10 mM sodium phosphate buffer, pH 7.4, 4 h at 37° C., FIG. 7)	microbicidal potency compared with natural BGP-A [3, 7]	microbicidal activity (reduction in colony forming units) [3, 8]	microbicidal potency compared with natural BGP-A [4, 7]	microbicidal activity (reduction in colony forming units) [4, 8]	bactericidal activity [5]	bactericidal activity [6]
YKIIQQWPHYRRV [BGP-A, thirteen-residue peptide antibiotic expressed in bovine granulocytes, …; tested as natural and synthetic preparations]	equal in potency; also recorded: equivalent killing activity	microbicidal	equal in potency; also recorded: equivalent killing activity	microbicidal	equal in potency; also recorded: equivalent killing activity	microbicidal	equal in potency; also recorded: equivalent killing activity	microbicidal		
indolicidin: novel tridecapeptide amide from bovine neutrophils, cationic, unusually rich in tryptophan (ILPWKWPWWPWRR-NH2; UniProt P33046 131-143, looked up)									potent bactericidal activity	potent bactericidal activity
